In data set [1] the test system is platelets. Nature of the data set: Vessel-On-Chip blood perfusion, platelet coverage/aggregation by fluorescence imaging. It is filed as cell-based, human. As for the experimental part: At the start of each experiment, two vials of cells were thawed and expanded for 3 days in EGM-2. Cells were gently detached with 0.05% Trypsin (BD Biosciences, 2-4 minutes incubation at room temperature) and 8×10^6 cells/ml were introduced into the ECM-coated microchannels. After incubating for 30 minutes at 37° C., cell attachment to the bottom surface of the chamber was assessed by microscopy. Then, a second flask of HUVECs was trypsinized and used to seed the upper surface of the microfluidic chamber by introducing the cell suspension, inverting the chip, and incubating at 37° C. for 30 minutes. Each microfluidic chamber was gently flushed with EGM-2 twice in order to remove unbound cells, then chips were incubated overnight at 37° C. The next day, chips were connected to a syringe pump (Chemyx Fusion 200) and perfused with EGM-2 for 3 days (30 μL/hr) to provide continuous supply of fresh media. On day 3, medium was switched to EGM-2 with low serum (1% FBS, no VEGF) to promote cell synchronization overnight. On day 4, chips were used for blood perfusion experiments.
Citrated human blood (Research Blood Components, Cambridge, Mass.) was used within 4 hours of a blood draw in order to minimize pre-analytical effects on platelet function. Before every experiment, each one of the endothelialized channels (i.e. microchannels having an endothelial cell layer) was inspected via light microscopy. Samples showing any sign of discontinuity in the endothelium were discarded.
Platelets were labeled with human CD41-PE antibody (10 μL/ml, Invitrogen) directly added to the blood and incubated at room temperature for 5 minutes.
(§1) A medical grade plastic reservoir was mounted on the chip, then 800 μl of the blood sample was pipetted into the reservoir. The chip was perfused with the blood by withdrawing it at a rate of 60 μl/minute using a syringe pump. The citrated blood was re-calcified 2 minutes after the beginning of each experiment by adding 100 μl/ml of a solution containing 100 mM calcium chloride and 75 mM magnesium chloride to the blood to permit calcium- and magnesium-dependent platelet function and coagulation.
(§2) Chips perfused with blood samples were immediately imaged via fluorescence microscopy (Olympus IX83, 10X objective UPLFLN10X2, Circa-Flash4.0 CMOS Camera). Each chamber was inspected along its entire length and 5 images (about […]) were captured from the central area of the chamber. Image processing and quantification was performed with an automatic macro compiled in […] and numerical values corresponding to platelet coverage or fibrin florescence were collected and statistically analyzed in Graphpad Prism V7.
(§3) A percentage of signal coverage (or Platelet coverage) was computed from the binary image as the ratio of bright pixels to the total number of pixels in the image. Image processing and quantification was performed with an automatic macro compiled in ImageJ ire order to ensure unbiased signal measurements. Numerical values corresponding to platelet coverage or fibrin fluorescence (signal intensity) were collected and statistically analyzed in Graphpad Prism V7.

Another data set has as its system fibrin. The experiment in a line: Vessel-On-Chip blood perfusion, fibrin deposition by fluorescent fibrinogen imaging. It is filed as cell-based, human. As for the experimental part: as §1
When analyzing the formation of fibrin, 10 μg/ml of fluorescently labeled fibrinogen (Alexa 488, Invitrogen) was also added to the blood. While fluorescent fibrinogen was barely detected as a diffused fluorescence, fibrin deposition on inflamed cells and sparse clots was easily distinguished since fibrin formed filamentous structures produce a signal intensity that is clearly observed above a background threshold.
as §2, §3

The test system of data set [2] is platelets. The experiment in a line: Platelet activation quality control by p-selectin expression. Type of data set: cell-based, human. The settings on record: control blood upon activation by ADP. As for the experimental part:
To test for a thrombic event, blood was collected from 4 donors, the as blood alone or blood treated with hu5C8 alone (240 μg/mL), sCD40L (10 ng/ml) alone or with combined hu5C8/sCD40L was incubated for 20 minutes at room temperature. Each sample was further incubated for 5 minutes with fluorescent labels for platelets and fibrinogen. As a standard quality control, the control blood was tested for platelet activation using p-selection expression. We confirmed that platelets in control blood were not activated but upon activation by ADP, over 90% of platelet was positive for p-selectin.

Data set [3] concerns platelets. The experiment in a line: Hu5C8 mediated thrombosis on-chip, FcγRIIa dependence (platelet coverage, fibrin deposition, TAT). It is filed as cell-based, human. The text has this: Recent studies conducted on humanized mice expressing the human Fcγ receptors (FCGR2A) have shown that this receptor plays a role in thrombosis leading to the IC-mediated toxicity^12,16,21. […] In order to investigate if the IC5c8-induced thrombosis that we observed in our vessel-on-chip system also relies on an Fc-mediated mechanism, we used two different tool molecules: IgG2σ and IV.3 (FIG. 25A). The IgG2σ variant of hu5C8 has an engineered Fc region^48 that eliminates affinity for the FcγRIIa, while the monoclonal antibody IV.3 is a blocking antibody binding to FcγRIIa. […]
Some of the blood samples were treated with IV.3 (1 μg/ml) for 10 minutes to block the FcγRIIa, and then incubated for 20 more minutes with IC5c8. […] We tested 15 donors and all the tested conditions described above were tested in duplicates and analyzed as percentage of platelet coverage based on fluorescence microscopic imaging (FIG. 25B). […]
Blood from several human donors were aliquoted into groups for the following treatments: controls (PBS), sCD40L, combined hu5C8/sCD40L, combined hu5C8 (IgG2σ)/sCD40L combined, and combined hu5C8/sCD40L/IV.3. Each condition was tested with a minimum of 3 donors to a maximum of 15 donors, and all conditions were tested in duplicates and analyzed for platelet coverage (FIG. 25B), fibrin deposition (FIG. 25C), or increased formation of TAT measured in the eluates (FIG. 25D). […]

The next data set deals with ICAM1. The experiment in a line: ICAM1 immunostaining of endothelium on chip. It is filed as cell-based, human. The conditions noted are these: TNF-α stimulated endothelium compared to the control. As for the experimental part:
In some experiment endothelial cells were stimulate with 50 ng/ml of TNF (Sigma) for 6 hours in order to induce vascular inflammation before blood perfusion.

Data set [4] deals with thrombin anti-thrombin complex (TAT). The experiment in a line: Thrombin-anti thrombin (TAT) measurement via ELISA in chip effluent. It is filed as cell-based, human. The settings on record: for TAT increment: Eptifibatide treatment. As for the experimental part: Thrombin Anti-Thrombin (TAT) levels were analyzed in plasma from blood flowing out of the chip device by removing a sample from the outflow port. Thus TAT levels were evaluated in sample effluents collected from the outflow port of the chip using the Human TAT ELISA Kit (Siemens Healthineers) according to the user manual.
Blood sampled from the Vessel-On-Chip outflow port was analyzed for thrombin anti-thrombin complex (TAT), a factor released upon activation of the coagulation cascade and one of the biomarkers associated with thrombotic events occurring in patients affected with deep vein thrombosis (DVT) or SLE^45,46. TAT is an accepted clinical biomarker for procoagulation^48,49. An enzyme-linked immunosorbent assay (ELISA) was used to quantify the thrombin anti-thrombin complex (TAT).
A general note: In an ELISA, binding on a coated surface is turned into a signal by an enzyme label.

Another data set has as its system re-calcified blood. Nature of the data set: On-chip anticoagulation of outflowing blood through the anticoagulant port. On the set-up: species or system human. The settings on record: sodium citrate through the anticoagulant port vs chips without anticoagulant port. The text has this: In one embodiment, the surface area of the vascular compartment of a microfluidic chip used herein is greater in comparison to the original lung-on-a-chip design because the original size was too small for optimal blood component interaction with endothelium. As described herein, a 1 mm wide and 200 μm tall chamber provided an increase in size of the vascular surface area exposed to laminar flow, as compared to an exemplary lung-on-chip. An anticoagulant port, referred to by several names, including but not limited to EDTA input, citrate input, etc., was added near the outflow port of the vascular chamber. Thus two ports (anticoagulant port and vascular outflow i.e. outflow) were linked through a microfluidic channel (dimension of 250 um wide by 100 um height) to allow for perfusion of anticoagulant solution during the experiment. In some embodiments, modifications were made in the […] dimension. The outlet of the chip was connected to a pulling syringe pump with a system of tubing and connectors made of medical grade silicon that excludes any metal components or potential causes of platelet activation. […]

The mark [5] stands for this setting: hu5C8 240 μg/mL, sCD40L 10 ng/ml, 4 donors, 60 μl/minute about 10 minutes, vs untreated blood.
Setting [6] is: TNF-α 50 ng/ml 6 hours on endothelium, or sCollagen 10 μg/ml in blood, vs control blood.
Setting [7] is: Eptifibatide 2 ug/ml, endothelium inflamed with TNF-α, n=4.
[8] abbreviates: Eptifibatide 2 ug/ml, following treatment with sCollagen, n=4.
Where [9] appears, read: Eptifibatide 2 ug/ml, samples treated with TNF-α, n=4.

Structures can show the parent of a compound that is named as a salt. Positions of bridges follow the written chain, without caps; N, C: chain ends. Non-standard residues stand in square brackets, D forms with d. Residues, ends and D or L forms follow the SMILES beside them. hArg = N=C(N)NCCCC[C@H](N)C(=O)O; Mpa = O=C(O)CCS

For “hu5C8: humanized monoclonal IgG1 antibody against CD40L (anti-CD154)”, the “platelet aggregate formation on the endothelium” value with platelets [1] (setting [5]) is “no significant treatment-related effects”. In addition, the “fibrin deposition on the endothelium” value in the data set on fibrin (setting [5]) is “no significant treatment-related effects”.
Take `Nc1ncnc2c1ncn2[C@@H]1O[C@H](COP(=O)(O)OP(=O)(O)O)[C@@H](O)[C@H]1O` [ADP]: the “platelet positive for p-selectin” value in the data set on platelets [2] is recorded as “over 90%”.
Consider “hu5C8 (IgG2σ): IgG2σ variant of hu5C8 with engineered Fc region that eliminates affinity for FcγRIIa”, for which, in the data set with platelets [3] (combined with sCD40L (IV.3: combined hu5C8/sCD40L/IV.3)), the “signs of thrombosis in any of the endpoints” value is on record as “did not show signs of thrombosis”. Also, the hu5C8-mediated thrombosis result in the data set on platelets [3] (preformed IC, IV.3 1 μg/ml 10 minutes, 15 donors) is “suppressed”.
As for TNF-α, in the data set on platelets [1] (setting [6]), the “areas of platelet coverage” value is reported as “increased”. The fibrin signal intensity entry with fibrin (setting [6]) was “increased”. Besides, the “expression of ICAM1 in the endothelium” value in the data set with ICAM1 is listed as “increased”. The “levels of TAT” value in data set [4] (plasma from blood flowing out of the chip, FIG. 22B) is given as “significantly increased”.
As for `O=C(O)CC(O)(CC(=O)O)C(=O)O` [sodium citrate], the “state of blood collected from the effluent” value in the data set with re-calcified blood is “soluble (not clotted) blood”.
`N=C(N)NCCCC[C@@H]1NC(=O)CCSSC[C@@H](C(N)=O)NC(=O)[C@@H]2CCCN2C(=O)[C@H](Cc2c[nH]c3ccccc23)NC(=O)[C@H](CC(=O)O)NC(=O)CNC1=O` [Eptifibatide] ([Mpa][hArg]GDWPC-NH2; disulfide 1-7): the platelet aggregation result in the data set with platelets [1] (setting [7]) was “significantly inhibited”. Also, in the data set on platelets [1] (setting [8]), the “inhibitory effect on platelet aggregation” value was “comparatively modest”. Moreover, the “platelet adhesion (image analysis)” value with platelets [1] (setting [9]) is recorded as “completely inhibited”. In addition, the fibrin clot formation entry in the data set on fibrin (setting [7]) is reported as “significantly inhibited”. The “inhibitory effect on fibrin clot formation” value in the data set with fibrin (setting [8]) is on record as “comparatively modest”. In the data set on fibrin (setting [9]), the “fibrin signal (image analysis)” value is on record as “a significant amount of fibrin signal was still detectable”. Besides, the values for the TAT increment result in data set [4] (TNF-α-induced inflammation) and in data set [4] (sCollagen treatment) were “did not inhibit” and “entirely suppressed”, respectively.

Values taken from patent publication US10852311B2, “Additive channels” (Emulate Inc., priority 2016, dated 2020).
